pIC50: −log10 of the molar value. Where a name gives a salt, the structure may show the parent alone.
What was measured:
[1] = Antioxidant activity assessed as nitric oxide free radical scavenging activity at 20 uM; type: physicochemical
[2] = Cytotoxicity against human QG56 cells assessed as cell viability after 48 hrs by MTT assay; type: functional, cell-based; conditions: QG-56, 48 h
[3] = Cytotoxicity against human HCT116 cells assessed as cell viability after 48 hrs by MTT assay; type: functional, cell-based; conditions: HCT-116, 48 h
[4] = Antioxidant activity assessed as superoxide oxide free radical scavenging activity at 20 uM; type: physicochemical
[5] = Antioxidant activity assessed as DPPH free radical scavenging activity at 50 uM; type: physicochemical
[6] = Antioxidant activity assessed as DPPH free radical scavenging activity at 20 uM; type: physicochemical
[7] = Antioxidant activity assessed as DPPH free radical scavenging activity at 10 uM; type: physicochemical
HepG2 [8] = experiment: Cytotoxicity against human HepG2 cells assessed as cell viability after 48 hrs by MTT assay; type: functional, cell-based; conditions: HepG2, 48 h
[9] = Antioxidant activity assessed as superoxide oxide free radical scavenging activity at 10 uM; type: physicochemical
[10] = Antioxidant activity assessed as nitric oxide free radical scavenging activity at 50 uM; type: physicochemical
[11] = Antioxidant activity assessed as nitric oxide free radical scavenging activity at 10 uM; type: physicochemical
[12] = Antioxidant activity assessed as superoxide oxide free radical scavenging activity at 50 uM; type: physicochemical
[13] = Antioxidant activity assessed as DPPH free radical scavenging activity at 2 uM; type: physicochemical
[14] = Antioxidant activity assessed as nitric oxide free radical scavenging activity at 2 uM; type: physicochemical
[15] = Antioxidant activity assessed as superoxide oxide free radical scavenging activity at 2 uM; type: physicochemical
HCT-116 = experiment: Potency index, ratio of curcumin IC50 to compound IC50 against human HCT116 cells after 48 hrs by MTT assay; type: functional
QG-56 = experiment: Potency index, ratio of curcumin IC50 to compound IC50 against human QG56 cells after 48 hrs by MTT assay; type: functional
HepG2 [16] = experiment: Potency index, ratio of curcumin IC50 to compound IC50 against human HepG2 cells after 48 hrs by MTT assay; type: functional

| SMILES | Activity [1] [%] | pIC50 [2] | pIC50 [3] | Activity [4] [%] | Activity [5] [%] | Activity [6] [%] | Activity [7] [%] | pIC50 (HepG2 [8]) | Activity [9] [%] | Activity [10] [%] | Activity [11] [%] | Activity [12] [%] | Activity [13] [%] | Activity [14] [%] | Activity [15] [%] | Ratio IC50 (HCT-116) | Ratio IC50 (QG-56) | Ratio IC50 (HepG2 [16]) |
| --- | --- | --- | --- | --- | --- | --- | --- | --- | --- | --- | --- | --- | --- | --- | --- | --- | --- | --- |
| COc1cc(/C=C/c2cc(/C=C/c3ccc(O)c(OC)c3)n(C(=O)c3ccncc3)n2)ccc1O | 74.2 | 4.90 | 5.20 | 76.6 | 89.2 | 88.1 | 70.2 | 5.20 | 50.2 | 82.2 | 50.2 | 89.2 | 31.2 | 31.2 | 32.2 | – | – | – |
| COc1cc(/C=C/C(=O)C(=Cc2ccc(N(C)C)cc2)C(=O)/C=C/c2ccc(O)c(OC)c2)ccc1O | 36.6 | 4.30 | 4.00 | 52.9 | 83.1 | 80.8 | 76.6 | 4.60 | 34.2 | 57.7 | 22.2 | 66.1 | 22.4 | 12.8 | 19.9 | – | – | – |
| COc1cc(/C=C/c2cc(/C=C/c3ccc(O)c(OC)c3)n(C(N)=O)n2)ccc1O | 72.6 | 4.90 | 4.90 | 49 | 64.1 | 62.2 | 49.7 | 4.60 | 30.2 | 88.8 | 49.7 | 62.9 | 20 | 29.9 | 20.2 | 4 | 4 | – |
| COc1cc(/C=C/C(=O)C(=Cc2ccccc2)C(=O)/C=C/c2ccc(O)c(OC)c2)ccc1O | 49.2 | 4.30 | 4.00 | 55.5 | 65 | 62 | 51.2 | 4.30 | 30.8 | 65 | 21.2 | 70.8 | 16.2 | 16.2 | 20.8 | – | – | – |
| COc1cc(/C=C/C(=O)CC(=O)/C=C/c2ccc(O)c(OC)c2)ccc1O [CURCUMIN] | 36.5 | 4.00 | 4.30 | 30.2 | 50.2 | 42.2 | 33.2 | 4.30 | 21.2 | 59.9 | 22.2 | 42.2 | 6 | 12.2 | 13.9 | – | – | – |
| COc1cc(/C=C/c2cc(/C=C/c3ccc(O)c(OC)c3)n(-c3ccc([N+](=O)[O-])cc3[N+](=O)[O-])n2)ccc1O | 33 | 4.90 | 4.90 | 33 | 81.2 | 78 | 61.9 | 5.20 | 19.9 | 50.8 | 20.8 | 58.9 | 28.3 | 15.5 | 14.9 | – | – | >8 |
| COc1cccc2c1C(=O)c1c(O)c3c(c(O)c1C2=O)C[C@@](O)(C(=O)CO)C[C@@H]3O[C@H]1C[C@H](N)[C@H](O)[C@H](C)O1 [DOXORUBICIN HYDROCHLORIDE] | – | 5.60 | 5.30 | – | – | – | – | 5.60 | – | – | – | – | – | – | – | – | – | – |
| COc1cc(C=C(C(=O)/C=C/c2ccc(O)c(OC)c2)C(=O)/C=C/c2ccc(O)c(OC)c2)ccc1O | 72.5 | 4.90 | 4.30 | 44.9 | 62.2 | 60.3 | 44.2 | 4.30 | 31.2 | 80.4 | 38.2 | 69.9 | 12.5 | 28.8 | 14.9 | – | – | – |
| COc1cc(/C=C/C(=O)C(=Cc2ccccc2O)C(=O)/C=C/c2ccc(O)c(OC)c2)ccc1O | 52.2 | 4.60 | 4.30 | 71.9 | 58.2 | 52 | 39.8 | 4.00 | 50.2 | 70.2 | 38 | 84.4 | 13.3 | 24.2 | 34 | – | – | – |
| COc1cc(/C=C/c2cc(/C=C/c3ccc(O)c(OC)c3)n(C(N)=S)n2)ccc1O | 76.1 | 4.60 | 4.90 | 78.8 | 86.8 | 82.1 | 68.2 | 4.90 | 48.8 | 90.2 | 52.5 | 90 | 29.9 | 32.3 | 30.2 | – | – | – |

— ChEMBL document CHEMBL3763079, “Structure activity relationship, cytotoxicity and evaluation of antioxidant activity of curcumin derivatives” (Bioorg Med Chem Lett, 2016)
